The source of these data is patent US8993557B2, “Pyridinedione carboxamide inhibitors of endothelial lipase” (Bristol-Myers Squibb Company, priority 2011, dated 2015).

pIC50: −log10 of the molar value.

Chain of Endothelial lipase (EL) (Q9Y5X9 21-500): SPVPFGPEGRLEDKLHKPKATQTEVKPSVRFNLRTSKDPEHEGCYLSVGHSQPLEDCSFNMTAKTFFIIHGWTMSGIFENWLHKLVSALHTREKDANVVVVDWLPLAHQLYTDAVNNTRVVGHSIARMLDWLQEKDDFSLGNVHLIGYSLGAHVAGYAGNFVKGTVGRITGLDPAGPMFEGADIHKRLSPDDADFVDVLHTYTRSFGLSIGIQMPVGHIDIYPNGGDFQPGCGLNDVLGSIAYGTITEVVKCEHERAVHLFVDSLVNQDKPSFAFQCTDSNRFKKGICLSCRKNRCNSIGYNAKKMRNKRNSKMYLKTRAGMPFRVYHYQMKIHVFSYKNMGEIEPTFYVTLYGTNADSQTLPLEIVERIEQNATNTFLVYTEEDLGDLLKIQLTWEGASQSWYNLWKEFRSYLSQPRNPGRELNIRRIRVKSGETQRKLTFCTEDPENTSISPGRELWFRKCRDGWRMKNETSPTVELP

This test addresses Endothelial lipase (EL) (Homo sapiens (Human), UniProt Q9Y5X9). The test is described as follows: Endothelial lipase (EL) enzymatic assay with fluorescent substrate A10070 in DMPG vesicles. The class given is biochemical. The following applies: conditioned media from HT-1080 cells overexpressing endogenous EL; 20 min preincubation at 37° C.; read-out: HLE_EL_CRC IC50. On the procedure:
Endothelial lipase activity was measured using a fluorescent substrate, A10070, (Invitrogen, CA) doped into an artificial vesicle containing DMPG (Avanti Polar Lipids) as the excipient. Vesicles were prepared by combining 285 uL of 1 mM DMPG in a 1:1 mixture of MeOH and CHCl3 with 15 uL of 1 mM A10070 in a 1:1 mixture of MeOH and CHCl3. The mixture was dried under nitrogen and resuspended in 150 uL of 50 mM HEPES pH 8.0 buffer containing 100 mM NaCl and 0.2 mM EDTA. The sample was allowed to sit at rt for 15 min and then was sonicated 3×4 mins on ice with a Branson Sonicator using duty cycle 1. This preparation provides vesicles with a mole fraction of 0.05 for the FRET substrate.
The enzymatic assay was measured using white, opaque 96-well half area plates. Each well contained 60 uL of assay buffer (50 mM HEPES pH 8.0, 50 mM NaCl and 1 mM CaCl2) and 2 ul of a DMSO solution containing compound of interest. Conditioned media obtained from HT-1080 cells, which were transformed by RAGE technology (Athersys) to overexpress endogenous EL, was added and the reaction was allowed to incubate for 20 min at 37° C. with gentle agitation. The reaction was started by the addition of 20 uL of a 1:4 dilution of vesicles. The final total reaction volume was 100 uL. The reaction rates were measured on a Gemini plate reader with an excitation wavelength of 488 nm and a emission of 530 nm. Readings were taken every 20 seconds for 10 min with agitation between each reading. The slope of the linear portion of the readout was used to calculate the rate of the reaction.
Consider `Cn1ccc(C(=O)NCc2ccc(Oc3ccc(F)cc3)cc2)c(O)c1=O` [Example 16, N-(4-(4-fluorophenoxy)benzyl)-3-hydroxy-1-methyl-2-oxo-1,2-dihydropyridine-4-carboxamide], for which the pIC50 was 8.00.
Turning to `Cn1ccc(C(=O)NCc2cccc(-c3ccccc3)c2)c(O)c1=O` [Example 21, N-(biphenyl-3-ylmethyl)-3-hydroxy-1-methyl-2-oxo-1,2-dihydropyridine-4-carboxamide], the pIC50 is 7.75.
For the compound `Cn1ccc(C(=O)NCc2ccccc2N2CCCCC2)c(O)c1=O` [Example 29, 3-hydroxy-1-methyl-2-oxo-N-(2-(piperidin-1-yl)benzyl)-1,2-dihydropyridine-4-carboxamide], the pIC50 was 5.18.
For `Cn1ccc(C(=O)NCc2ccccc2N2CCCC2)c(O)c1=O` [Example 31, 3-hydroxy-1-methyl-2-oxo-N-(2-(pyrrolidin-1-yl)benzyl)-1,2-dihydropyridine-4-carboxamide] the value was 5.19; for `Cn1c(C(F)(F)F)cc(C(=O)NCc2cccc(-c3ccc(Cl)cc3)c2)c(O)c1=O` [Example 32, N-((4′-chlorobiphenyl-3-yl)methyl)-3-hydroxy-1-methyl-2-oxo-6-(trifluoromethyl)-1,2-dihydropyridine-4-carboxamide], 7.95; for `O=C(NC1CCN(c2ccc(F)cc2)CC1)c1ccn(CC(F)(F)F)c(=O)c1O` [Example 33, N-(1-(4-fluorophenyl)piperidin-4-yl)-3-hydroxy-2-oxo-1-(2,2,2-trifluoroethyl)-1,2-dihydropyridine-4-carboxamide], 5.34.
The result for `O=C(N[C@H]1CC[C@@H](c2ccccc2)CC1)c1ccn(CCC(F)(F)F)c(=O)c1O` [Example 37, 3-hydroxy-2-oxo-N-(cis-4-phenylcyclohexyl)-1-(3,3,3-trifluoropropyl)-1,2-dihydropyridine-4-carboxamide] reads 6.45; that for `O=C(N[C@H]1CC[C@@H](c2ccccc2)CC1)c1ccn(CCCC(F)(F)F)c(=O)c1O` [Example 39, 3-hydroxy-2-oxo-N-(cis-4-phenylcyclohexyl)-1-(4,4,4-trifluorobutyl)-1,2-dihydropyridine-4-carboxamide], 6.16; that for `O=C(NCc1ccccc1-c1ccc(F)cc1)c1ccn(CC(F)(F)F)c(=O)c1O` [Example 41, N-((4′-fluorobiphenyl-2-yl)methyl)-3-hydroxy-2-oxo-1-(2,2,2-trifluoroethyl)-1,2-dihydropyridine-4-], 7.96.
In the case of `Cn1c(Cl)cc(C(=O)NC2CCC(c3ccccc3)CC2)c(O)c1=O` (stereo not shown) [Example 44, 6-chloro-3-hydroxy-1-methyl-2-oxo-N-(4-phenylcyclohexyl)-1,2-dihydropyridine-4-carboxamide], the pIC50 was 6.32.

By pIC50 is commonly meant the IC50 on a negative log10 scale, so that one unit is a factor of ten.
